Reference: article PMC6576746, “Rational discovery of dual-indication multi-target PDE/Kinase inhibitor for precision anti-cancer therapy using structural systems pharmacology” (PLoS Computational Biology, 2019)

Experiments:
Experiment in all cases: biochemical
Design in all cases: DiscoverX KinomeScan competition binding assay across human kinases; per cent of control at 10 and 100 uM
MAP3K1 = MAP3K1 (Homo sapiens, UniProt Q13233); settings: competition binding, % of control; read-out: Percent Control (100 uM Levosimendan)
Procedure, shortened: (§1)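 Binding is expressed as %control, normalised between positive and negative control signals. The compound (levosimendan) was tested at 10 μM and 100 μM in the DiscoverX KinomeScan competition binding format against human kinases.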

[1] = target: EGFR(L747-S752del, P753S) (Homo sapiens, UniProt P00533, DEL747-752/P753S); settings: competition binding, % of control; read-out: Percent Control (100 uM Levosimendan)
Procedure, shortened: as §1

DYRK1A = DYRK1A (Homo sapiens, UniProt Q13627); settings: competition binding, % of control; read-out: Percent Control (100 uM Levosimendan)
Procedure, shortened: as §1

EIF2AK1 = EIF2AK1 (Homo sapiens, UniProt Q9BQI3); settings: competition binding, % of control; read-out: Percent Control (100 uM Levosimendan)
Procedure, shortened: as §1

EPHA7 = EPHA7 (Homo sapiens, UniProt Q15375); settings: competition binding, % of control; read-out: Percent Control (100 uM Levosimendan)
Procedure, shortened: as §1

[2] = target: T1, TYK2(JH1domain-catalytic) (Homo sapiens, UniProt P29597); settings: competition binding, % of control
T1 construct: JH1domain-catalytic
Procedure, shortened: as §1

STK39 = STK39 (Homo sapiens, UniProt Q9UEW8); settings: competition binding, % of control; read-out: Percent Control (100 uM Levosimendan)
Procedure, shortened: as §1

PRKCD = PRKCD (Homo sapiens, UniProt Q05655); settings: competition binding, % of control
Procedure, shortened: as §1

AURKA = AURKA (Homo sapiens, UniProt O14965); settings: competition binding, % of control; read-out: Percent Control (100 uM Levosimendan)
Procedure, shortened: as §1

TXK = TXK (Homo sapiens, UniProt P42681); settings: competition binding, % of control; read-out: Percent Control (100 uM Levosimendan)
Procedure, shortened: as §1

PRKG2 = PRKG2 (Homo sapiens, UniProt Q13237); settings: competition binding, % of control; read-out: Percent Control (100 uM Levosimendan)
Procedure, shortened: as §1

DLK = target: T2, DLK (Homo sapiens, UniProt Q12852); settings: competition binding, % of control; read-out: Percent Control (100 uM Levosimendan)
T2 construct: gene MAP3K12
Procedure, shortened: as §1

MAP3K3 = MAP3K3 (Homo sapiens, UniProt Q99759); settings: competition binding, % of control; read-out: Percent Control (100 uM Levosimendan)
Procedure, shortened: as §1

TEC = TEC (Homo sapiens, UniProt P42680); settings: competition binding, % of control; read-out: Percent Control (100 uM Levosimendan)
Procedure, shortened: as §1

KIT = KIT (Homo sapiens, UniProt P10721); settings: competition binding, % of control
Procedure, shortened: as §1

FGFR4 = FGFR4 (Homo sapiens, UniProt P22455); settings: competition binding, % of control; read-out: Percent Control (100 uM Levosimendan)
Procedure, shortened: as §1

MST1 = target: T3, MST1 (Homo sapiens, UniProt Q13043); settings: competition binding, % of control; read-out: Percent Control (100 uM Levosimendan)
T3 construct: gene STK4
Procedure, shortened: as §1

[3] = target: T4, ABL1(M351T)-phosphorylated (Homo sapiens, UniProt P00519, M351T); settings: competition binding, % of control; read-out: Percent Control (100 uM Levosimendan)
T4 construct: phosphorylated
Procedure, shortened: as §1

MAP3K2 = MAP3K2 (Homo sapiens, UniProt Q9Y2U5); settings: competition binding, % of control; read-out: Percent Control (100 uM Levosimendan)
Procedure, shortened: as §1

[4] = read-out: Percent Control (10 uM Levosimendan)
[5] = read-out: Percent Control (100 uM Levosimendan)

Chain of PRKCD (Q05655 whole entry): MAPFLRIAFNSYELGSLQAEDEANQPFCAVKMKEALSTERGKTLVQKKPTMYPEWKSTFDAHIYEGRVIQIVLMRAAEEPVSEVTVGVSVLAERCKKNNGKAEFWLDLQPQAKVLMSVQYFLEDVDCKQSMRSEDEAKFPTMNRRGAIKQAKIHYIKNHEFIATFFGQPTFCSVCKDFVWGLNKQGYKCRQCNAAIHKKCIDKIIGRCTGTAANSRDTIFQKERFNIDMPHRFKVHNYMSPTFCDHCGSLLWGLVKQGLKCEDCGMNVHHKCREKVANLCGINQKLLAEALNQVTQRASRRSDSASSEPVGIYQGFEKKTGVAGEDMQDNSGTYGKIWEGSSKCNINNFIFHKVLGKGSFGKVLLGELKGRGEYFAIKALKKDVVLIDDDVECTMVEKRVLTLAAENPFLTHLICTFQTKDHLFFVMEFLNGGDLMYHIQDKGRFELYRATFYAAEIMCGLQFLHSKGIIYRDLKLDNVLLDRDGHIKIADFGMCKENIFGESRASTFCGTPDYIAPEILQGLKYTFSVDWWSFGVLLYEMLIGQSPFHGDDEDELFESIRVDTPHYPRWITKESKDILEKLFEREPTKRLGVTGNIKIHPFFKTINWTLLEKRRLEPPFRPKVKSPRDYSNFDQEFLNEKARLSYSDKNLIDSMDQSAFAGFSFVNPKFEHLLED
T1 sequence (P29597 whole entry): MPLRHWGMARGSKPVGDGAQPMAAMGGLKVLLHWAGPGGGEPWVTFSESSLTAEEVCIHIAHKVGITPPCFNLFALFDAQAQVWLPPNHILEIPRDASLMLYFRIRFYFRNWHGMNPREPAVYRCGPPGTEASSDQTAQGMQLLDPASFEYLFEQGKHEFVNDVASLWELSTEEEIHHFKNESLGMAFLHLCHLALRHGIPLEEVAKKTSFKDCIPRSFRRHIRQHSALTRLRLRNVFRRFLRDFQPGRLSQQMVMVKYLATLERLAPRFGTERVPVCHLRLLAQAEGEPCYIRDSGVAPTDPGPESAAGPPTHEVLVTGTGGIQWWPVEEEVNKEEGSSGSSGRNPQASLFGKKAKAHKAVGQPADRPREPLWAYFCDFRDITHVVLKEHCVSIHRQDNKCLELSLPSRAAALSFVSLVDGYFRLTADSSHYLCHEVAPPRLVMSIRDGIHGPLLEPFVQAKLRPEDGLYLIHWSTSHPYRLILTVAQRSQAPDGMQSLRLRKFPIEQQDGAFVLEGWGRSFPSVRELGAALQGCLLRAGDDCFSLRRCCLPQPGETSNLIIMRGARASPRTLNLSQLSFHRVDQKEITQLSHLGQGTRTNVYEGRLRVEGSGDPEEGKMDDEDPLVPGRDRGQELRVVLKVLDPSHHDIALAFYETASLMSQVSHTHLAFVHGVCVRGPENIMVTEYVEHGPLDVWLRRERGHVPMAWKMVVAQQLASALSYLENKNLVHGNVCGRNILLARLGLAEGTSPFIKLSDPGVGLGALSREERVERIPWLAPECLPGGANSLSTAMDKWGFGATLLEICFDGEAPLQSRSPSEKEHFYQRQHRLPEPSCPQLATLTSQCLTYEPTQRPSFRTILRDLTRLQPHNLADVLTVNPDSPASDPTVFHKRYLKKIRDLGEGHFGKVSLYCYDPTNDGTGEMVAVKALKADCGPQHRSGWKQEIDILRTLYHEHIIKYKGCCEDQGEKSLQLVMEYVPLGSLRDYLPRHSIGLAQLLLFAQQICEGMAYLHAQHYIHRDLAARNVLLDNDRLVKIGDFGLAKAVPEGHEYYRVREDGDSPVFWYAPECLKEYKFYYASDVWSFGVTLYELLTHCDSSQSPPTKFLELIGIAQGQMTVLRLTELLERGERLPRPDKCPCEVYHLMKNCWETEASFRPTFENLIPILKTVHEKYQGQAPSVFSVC
Chain of KIT (P10721 whole entry): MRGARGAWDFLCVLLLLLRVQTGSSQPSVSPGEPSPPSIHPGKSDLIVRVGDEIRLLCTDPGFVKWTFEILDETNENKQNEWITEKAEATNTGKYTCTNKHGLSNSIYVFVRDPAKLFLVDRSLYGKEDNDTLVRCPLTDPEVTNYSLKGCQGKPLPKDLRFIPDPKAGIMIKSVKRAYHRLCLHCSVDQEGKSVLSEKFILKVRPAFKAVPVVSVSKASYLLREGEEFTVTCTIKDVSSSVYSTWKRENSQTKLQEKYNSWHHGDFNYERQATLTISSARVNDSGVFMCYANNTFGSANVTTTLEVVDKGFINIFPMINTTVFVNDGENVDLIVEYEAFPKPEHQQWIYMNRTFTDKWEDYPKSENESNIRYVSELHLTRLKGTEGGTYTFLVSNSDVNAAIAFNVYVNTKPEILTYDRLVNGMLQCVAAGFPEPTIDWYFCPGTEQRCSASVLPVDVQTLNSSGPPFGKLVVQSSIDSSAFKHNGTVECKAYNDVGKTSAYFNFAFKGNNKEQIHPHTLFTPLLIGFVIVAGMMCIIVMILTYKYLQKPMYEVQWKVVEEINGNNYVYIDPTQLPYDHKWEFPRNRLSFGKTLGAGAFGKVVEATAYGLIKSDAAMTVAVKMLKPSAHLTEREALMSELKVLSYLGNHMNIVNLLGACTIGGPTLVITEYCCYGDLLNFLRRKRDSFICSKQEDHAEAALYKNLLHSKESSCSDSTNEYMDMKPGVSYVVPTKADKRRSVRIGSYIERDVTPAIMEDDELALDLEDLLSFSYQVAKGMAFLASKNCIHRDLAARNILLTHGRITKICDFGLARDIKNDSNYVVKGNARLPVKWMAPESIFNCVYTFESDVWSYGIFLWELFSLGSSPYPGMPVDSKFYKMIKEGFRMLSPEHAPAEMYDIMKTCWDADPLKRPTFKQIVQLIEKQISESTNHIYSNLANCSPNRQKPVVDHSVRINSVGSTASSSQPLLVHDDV
T3 sequence (Q13043 whole entry): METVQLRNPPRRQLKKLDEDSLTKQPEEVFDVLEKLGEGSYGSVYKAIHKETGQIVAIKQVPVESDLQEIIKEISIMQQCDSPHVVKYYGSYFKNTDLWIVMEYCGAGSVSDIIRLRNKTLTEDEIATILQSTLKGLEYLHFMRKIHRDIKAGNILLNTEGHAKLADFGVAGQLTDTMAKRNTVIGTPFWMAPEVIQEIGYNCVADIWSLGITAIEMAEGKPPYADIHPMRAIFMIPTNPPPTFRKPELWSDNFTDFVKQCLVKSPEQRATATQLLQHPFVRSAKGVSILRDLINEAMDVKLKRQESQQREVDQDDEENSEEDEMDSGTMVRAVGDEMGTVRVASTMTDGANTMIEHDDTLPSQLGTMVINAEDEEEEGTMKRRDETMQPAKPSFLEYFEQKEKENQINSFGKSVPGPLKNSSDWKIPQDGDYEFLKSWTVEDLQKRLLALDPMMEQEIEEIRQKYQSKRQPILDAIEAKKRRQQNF
Chain of EGFR(L747-S752del, P753S) (P00533 with tags, fused parts or gaps DEL747-752/P753S): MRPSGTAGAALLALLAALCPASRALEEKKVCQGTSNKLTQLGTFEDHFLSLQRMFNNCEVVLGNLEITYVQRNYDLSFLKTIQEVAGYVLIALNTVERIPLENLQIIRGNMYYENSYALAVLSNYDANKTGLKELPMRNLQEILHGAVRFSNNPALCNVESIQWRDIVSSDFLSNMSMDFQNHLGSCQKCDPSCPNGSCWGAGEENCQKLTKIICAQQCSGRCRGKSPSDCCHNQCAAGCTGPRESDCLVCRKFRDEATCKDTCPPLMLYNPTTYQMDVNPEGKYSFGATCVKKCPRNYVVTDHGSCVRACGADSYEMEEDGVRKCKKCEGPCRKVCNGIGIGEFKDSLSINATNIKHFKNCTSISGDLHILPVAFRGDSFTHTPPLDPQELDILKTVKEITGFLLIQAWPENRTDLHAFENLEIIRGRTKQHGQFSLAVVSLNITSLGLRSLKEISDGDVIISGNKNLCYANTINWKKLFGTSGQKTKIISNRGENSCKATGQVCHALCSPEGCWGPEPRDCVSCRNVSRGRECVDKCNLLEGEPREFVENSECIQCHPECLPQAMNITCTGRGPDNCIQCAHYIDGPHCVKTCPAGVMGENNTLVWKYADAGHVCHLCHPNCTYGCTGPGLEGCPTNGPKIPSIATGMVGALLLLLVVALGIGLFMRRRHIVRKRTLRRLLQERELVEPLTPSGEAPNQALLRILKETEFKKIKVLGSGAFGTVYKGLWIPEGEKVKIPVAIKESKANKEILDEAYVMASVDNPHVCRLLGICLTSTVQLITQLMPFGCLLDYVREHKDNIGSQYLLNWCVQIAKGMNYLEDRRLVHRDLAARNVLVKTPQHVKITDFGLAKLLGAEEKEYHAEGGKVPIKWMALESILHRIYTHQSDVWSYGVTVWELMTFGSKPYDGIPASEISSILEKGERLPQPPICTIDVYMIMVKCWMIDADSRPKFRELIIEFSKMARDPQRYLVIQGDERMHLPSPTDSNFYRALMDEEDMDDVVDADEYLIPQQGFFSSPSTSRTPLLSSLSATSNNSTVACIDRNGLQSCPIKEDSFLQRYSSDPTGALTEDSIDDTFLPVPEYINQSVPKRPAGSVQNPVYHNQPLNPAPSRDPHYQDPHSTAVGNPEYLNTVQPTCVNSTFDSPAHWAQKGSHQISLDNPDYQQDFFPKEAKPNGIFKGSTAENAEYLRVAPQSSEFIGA
Chain of AURKA (O14965 whole entry): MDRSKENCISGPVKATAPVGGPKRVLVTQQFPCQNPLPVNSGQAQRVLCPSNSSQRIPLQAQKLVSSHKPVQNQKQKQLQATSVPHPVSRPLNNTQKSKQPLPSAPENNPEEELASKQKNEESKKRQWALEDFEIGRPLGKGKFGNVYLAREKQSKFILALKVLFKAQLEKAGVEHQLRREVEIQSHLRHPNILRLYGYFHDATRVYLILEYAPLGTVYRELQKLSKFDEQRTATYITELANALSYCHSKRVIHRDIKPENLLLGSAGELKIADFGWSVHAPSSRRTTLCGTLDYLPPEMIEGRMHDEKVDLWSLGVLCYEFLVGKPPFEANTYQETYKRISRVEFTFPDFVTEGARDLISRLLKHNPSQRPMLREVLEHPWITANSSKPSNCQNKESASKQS

- remaining binding at 100 µM (MAP3K1): 100%
- remaining binding at 100 µM [1]: 91%
- remaining binding at 100 µM (DYRK1A): 89%
- remaining binding at 100 µM (EIF2AK1): 100%
- remaining binding at 100 µM (EPHA7): 85%
- remaining binding at 10 µM [2, 4]: 85%
- remaining binding at 100 µM [2, 5]: 27%
- remaining binding at 100 µM (STK39): 100%
- remaining binding at 10 µM (PRKCD; [4]): 93%
- remaining binding at 100 µM (PRKCD; [5]): 48%
- remaining binding at 100 µM (AURKA): 73%
- remaining binding at 100 µM (TXK): 60%
- remaining binding at 100 µM (PRKG2): 98%
- remaining binding at 100 µM (DLK): 62%
- remaining binding at 100 µM (MAP3K3): 66%
- remaining binding at 100 µM (TEC): 74%
- remaining binding at 10 µM (KIT; [4]): 26%
- remaining binding at 100 µM (KIT; [5]): 3.5%
- remaining binding at 100 µM (FGFR4): 92%
- remaining binding at 100 µM (MST1): 75%
- remaining binding at 100 µM [3]: 79%
- remaining binding at 100 µM (MAP3K2): 86%
Structure (SMILES): C[C@@H]1CC(=O)NN=C1c1ccc(NN=C(C#N)C#N)cc1 [levosimendan]
